Some results are limits rather than exact numbers.

Data set [1] addresses T1, human vasopressin V1b receptor (Homo sapiens, UniProt P47901).
T1 construct: expressed in transfected cells; host or cells: CHO-K1 (clone 3H2; cell line hV1b-3H2_CHO), membrane preparation
T1 sequence (P47901 1-424): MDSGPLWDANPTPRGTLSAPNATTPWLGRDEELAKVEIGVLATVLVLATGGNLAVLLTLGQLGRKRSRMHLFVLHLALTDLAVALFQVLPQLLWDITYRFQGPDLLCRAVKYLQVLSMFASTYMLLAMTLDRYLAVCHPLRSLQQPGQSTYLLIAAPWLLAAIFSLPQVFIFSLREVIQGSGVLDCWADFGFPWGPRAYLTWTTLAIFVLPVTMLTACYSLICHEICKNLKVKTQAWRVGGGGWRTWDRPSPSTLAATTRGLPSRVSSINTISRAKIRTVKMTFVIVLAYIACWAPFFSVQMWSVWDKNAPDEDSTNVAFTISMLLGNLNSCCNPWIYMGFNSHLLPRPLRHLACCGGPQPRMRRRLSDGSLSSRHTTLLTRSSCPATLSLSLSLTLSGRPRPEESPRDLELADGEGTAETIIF
As to the kind of experiment: Vasopressin V1b receptor binding assay. The note with it: membranes from CHO-K1 cells with human V1b receptor, 1.5 nM 3H-AVP. The procedure: 1. Vasopressin V1b Receptor Binding Assay:
The substance concentration was further diluted 1:5 in the assay mixture (2% DMSO in the mixture).
The nonspecific binding was determined with 1 M AVP (Bachem # H1780). All determinations were carried out as triplicate determinations.

The nature of data set [2]: Determination of the microsomal half-life / microsomal clearance. In kind it is in vitro ADME. The settings on record: pH 7.4; human liver microsomes, 0.5 μM test substance, 0.25 mg microsomal protein/ml. The procedure:
5. Determination of the Microsomal Half-Life:
The metabolic stability of the compounds of the invention was determined in the following assay.
The test substances were incubated in a concentration of 0.5 μM as follows: 0.5 μM test substance are preincubated together with liver microsomes from different species (from rat, human or other species) (0.25 mg of microsomal protein/ml) in 0.05 M potassium phosphate buffer of pH 7.4 in microtiter plates at 37° C. for 5 min. The reaction is started by adding NADPH (1 mg/mL). After 0, 5, 10, 15, 20 and 30 min, 50 μl aliquots are removed, and the reaction is immediately stopped and cooled with the same volume of acetonitrile. The samples are frozen until analyzed. The remaining concentration of undegraded test substance is determined by MSMS. The half-life (T½) is determined from the gradient of the signal of test substance/unit time plot, it being possible to calculate the half-life of the test substance, assuming first order kinetics, from the decrease in the concentration of the compound with time. The microsomal clearance (mCl) is calculated from mCl=In2/T½/(content of microsomal protein in mg/ml)×1000 […] (modified from references: Di, The Society for Biomoleculur Screening, 2003, 453-462; Obach, DMD, 1999 vol 27. N 11, 1350-1359).
For orientation: Microsomes from liver hold many membrane-bound enzymes, among them those of drug oxidation.

Data set [3] addresses human vasopressin V1a receptor (Homo sapiens, UniProt P37288). As to the kind of experiment: Vasopressin V1a receptor binding assay. The settings on record: selectivity: quotient of Ki at human V1a and Ki at human V1b.

Chain of human vasopressin V1a receptor (P37288 whole entry): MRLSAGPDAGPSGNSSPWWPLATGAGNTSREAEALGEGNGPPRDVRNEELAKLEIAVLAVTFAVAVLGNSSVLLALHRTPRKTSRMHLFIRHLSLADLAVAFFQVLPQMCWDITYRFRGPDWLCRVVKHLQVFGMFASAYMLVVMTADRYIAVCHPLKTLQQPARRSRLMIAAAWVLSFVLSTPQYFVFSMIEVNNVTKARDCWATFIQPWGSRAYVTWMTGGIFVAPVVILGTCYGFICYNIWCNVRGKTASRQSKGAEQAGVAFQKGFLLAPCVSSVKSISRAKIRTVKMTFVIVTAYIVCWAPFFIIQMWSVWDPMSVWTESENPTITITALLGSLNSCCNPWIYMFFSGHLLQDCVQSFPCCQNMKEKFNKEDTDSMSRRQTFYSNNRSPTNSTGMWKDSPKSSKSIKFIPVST

In general, Ki refers to a dissociation constant, usually derived from enzyme kinetics or from competition with a known ligand. A low value points to tighter binding. For orientation: microsomal CLint means the capacity of the preparation to metabolise the compound, expressed as a volume cleared per time. Read a high microsomal CLint as rapid turnover. For `CCOc1ncccc1C1(NC(=O)N2CCC(N3CCN(C)CC3)CC2)C(=O)N(S(=O)(=O)c2ccc(OC)cc2OC)c2ccc(Cl)cc21` (single isomer, unassigned; (+)) [Example 5B, (+)-4-(4-Methylpiperazin-1-yl)piperidine-1-[5-chloro-1-(2,4-dimethoxyphenylsulfonyl)-3-(2-ethoxypyridin-3-yl)-2-oxo-2,3-dihydro-1H-indol-3-yl]carboxamide], the Ki in data set [1] is less than 1 nM. The molecule further yielded a microsomal CLint at 0.5 μM in data set [2] of less than 50 µL/min/mg. The “Ki(h-V1a)/Ki(h-V1b)” value in data set [3] is reported as “+++ (>75)”.

Molecule `CCOc1ncccc1C1(OC(=O)N2CCN(C3CCN(C)CC3)CC2)C(=O)N(S(=O)(=O)c2ccccc2)c2ccc(Cl)cc21.O=C(O)C(F)(F)F` (racemic) [Example 24, 1-Phenylsulfonyl-5-chloro-3-(2-ethoxypyridin-3-yl)-2-oxo-2,3-dihydro-1H-indol-3-yl (±)-4-(1-methylpiperidin-4-yl)piperazine-1-carboxylate, trifluoroacetic acid salt] returned a Ki in data set [1] of 1 to 10 nM. The same molecule had a microsomal CLint at 0.5 μM in data set [2] of 50 to 75 µL/min/mg. For the same molecule, the “Ki(h-V1a)/Ki(h-V1b)” value in data set [3] is “++ (25-75)”.
